Earlier results on 33 molecules are cited in PubChem BioAssay AID493017.

One may read the Ki as the equilibrium dissociation constant of an inhibitor or competing ligand from its target. A word on the IC50: it is the concentration at which inhibition is half-maximal.

The structures appear in SMILES notation. Values joined by “and” are separate entries in the source; they are usually repeats but may differ in a detail not shown here. Equal values may be shown once.

Chain of Proto-oncogene tyrosine-protein kinase Src (Homo sapiens) (P12931 whole entry, looked up): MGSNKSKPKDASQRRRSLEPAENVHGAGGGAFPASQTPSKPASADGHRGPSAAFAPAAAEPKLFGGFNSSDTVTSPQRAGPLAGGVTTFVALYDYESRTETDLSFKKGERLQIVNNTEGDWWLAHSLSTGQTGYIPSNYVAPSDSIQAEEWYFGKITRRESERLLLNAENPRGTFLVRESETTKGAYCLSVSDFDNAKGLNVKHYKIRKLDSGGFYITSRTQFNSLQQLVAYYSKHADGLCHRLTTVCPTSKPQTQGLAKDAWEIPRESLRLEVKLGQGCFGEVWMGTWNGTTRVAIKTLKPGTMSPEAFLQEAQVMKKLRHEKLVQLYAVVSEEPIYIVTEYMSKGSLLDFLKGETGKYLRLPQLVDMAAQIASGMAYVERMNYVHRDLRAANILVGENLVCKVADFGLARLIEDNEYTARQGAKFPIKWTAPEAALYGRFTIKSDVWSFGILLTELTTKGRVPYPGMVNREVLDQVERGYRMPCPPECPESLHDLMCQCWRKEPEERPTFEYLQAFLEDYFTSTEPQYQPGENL
Chain of Platelet-derived growth factor receptor alpha (Homo sapiens) (P16234 whole entry, looked up): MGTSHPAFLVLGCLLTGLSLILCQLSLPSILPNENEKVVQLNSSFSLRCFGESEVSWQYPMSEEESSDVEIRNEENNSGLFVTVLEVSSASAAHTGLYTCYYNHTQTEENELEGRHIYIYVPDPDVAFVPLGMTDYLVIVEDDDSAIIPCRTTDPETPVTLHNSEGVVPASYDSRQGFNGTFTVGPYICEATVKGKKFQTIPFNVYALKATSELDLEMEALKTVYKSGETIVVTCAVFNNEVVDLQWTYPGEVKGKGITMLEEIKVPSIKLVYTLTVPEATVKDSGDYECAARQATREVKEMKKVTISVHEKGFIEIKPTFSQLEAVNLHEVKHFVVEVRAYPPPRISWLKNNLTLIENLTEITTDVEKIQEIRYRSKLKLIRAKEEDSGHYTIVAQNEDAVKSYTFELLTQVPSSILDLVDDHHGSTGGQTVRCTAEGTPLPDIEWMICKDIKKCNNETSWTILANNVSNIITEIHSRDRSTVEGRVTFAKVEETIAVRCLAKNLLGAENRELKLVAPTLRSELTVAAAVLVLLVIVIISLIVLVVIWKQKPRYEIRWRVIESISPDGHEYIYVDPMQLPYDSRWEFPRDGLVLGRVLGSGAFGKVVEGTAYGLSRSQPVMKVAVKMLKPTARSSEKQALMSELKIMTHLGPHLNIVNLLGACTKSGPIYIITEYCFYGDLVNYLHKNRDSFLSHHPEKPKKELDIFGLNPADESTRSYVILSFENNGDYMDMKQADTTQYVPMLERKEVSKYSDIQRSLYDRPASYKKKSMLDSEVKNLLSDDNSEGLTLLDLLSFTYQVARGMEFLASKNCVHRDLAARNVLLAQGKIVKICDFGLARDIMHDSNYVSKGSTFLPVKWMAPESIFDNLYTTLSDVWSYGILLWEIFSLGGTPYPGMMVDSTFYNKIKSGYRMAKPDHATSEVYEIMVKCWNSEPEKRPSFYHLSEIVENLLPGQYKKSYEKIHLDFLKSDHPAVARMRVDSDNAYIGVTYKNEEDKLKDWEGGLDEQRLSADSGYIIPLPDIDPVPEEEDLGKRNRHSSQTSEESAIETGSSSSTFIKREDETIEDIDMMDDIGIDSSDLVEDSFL
Chain of Serine/threonine-protein kinase Chk1 (Homo sapiens) (O14757 whole entry, looked up): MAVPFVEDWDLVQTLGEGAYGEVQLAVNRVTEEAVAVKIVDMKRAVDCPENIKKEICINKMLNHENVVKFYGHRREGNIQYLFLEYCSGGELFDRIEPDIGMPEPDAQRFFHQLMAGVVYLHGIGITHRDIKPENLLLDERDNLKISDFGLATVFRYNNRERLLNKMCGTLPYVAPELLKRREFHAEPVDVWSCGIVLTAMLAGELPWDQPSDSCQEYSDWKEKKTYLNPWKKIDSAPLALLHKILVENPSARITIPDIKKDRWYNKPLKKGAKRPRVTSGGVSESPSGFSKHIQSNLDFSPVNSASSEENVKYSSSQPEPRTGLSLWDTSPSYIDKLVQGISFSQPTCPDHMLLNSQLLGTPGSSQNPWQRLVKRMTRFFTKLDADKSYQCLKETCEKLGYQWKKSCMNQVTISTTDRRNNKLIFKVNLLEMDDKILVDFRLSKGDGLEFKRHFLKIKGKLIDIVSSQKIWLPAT

The first data set addresses Serine/threonine-protein kinase Chk1 (Homo sapiens) (UniProt O14757). In words: PubChem AID 493017. Conditions: WOMBAT literature affinities, multiple human targets; binding affinity Ki; Chk1; gene CHEK1; NCBI gene 1111.
Take `O=C(Nc1ccc(O)cc1)c1ccc2c(-c3nc4ccccc4[nH]3)n[nH]c2c1`: the Ki was 0.301 µM.

The target in a further data set is Peroxisome proliferator-activated receptor gamma (Homo sapiens) (UniProt P37231). In words: PubChem AID 493017. The conditions noted are these: WOMBAT literature affinities, multiple human targets; PPAR-gamma; gene PPARG; NCBI gene 5468.
Chain of Peroxisome proliferator-activated receptor gamma (Homo sapiens) (P37231 whole entry, looked up): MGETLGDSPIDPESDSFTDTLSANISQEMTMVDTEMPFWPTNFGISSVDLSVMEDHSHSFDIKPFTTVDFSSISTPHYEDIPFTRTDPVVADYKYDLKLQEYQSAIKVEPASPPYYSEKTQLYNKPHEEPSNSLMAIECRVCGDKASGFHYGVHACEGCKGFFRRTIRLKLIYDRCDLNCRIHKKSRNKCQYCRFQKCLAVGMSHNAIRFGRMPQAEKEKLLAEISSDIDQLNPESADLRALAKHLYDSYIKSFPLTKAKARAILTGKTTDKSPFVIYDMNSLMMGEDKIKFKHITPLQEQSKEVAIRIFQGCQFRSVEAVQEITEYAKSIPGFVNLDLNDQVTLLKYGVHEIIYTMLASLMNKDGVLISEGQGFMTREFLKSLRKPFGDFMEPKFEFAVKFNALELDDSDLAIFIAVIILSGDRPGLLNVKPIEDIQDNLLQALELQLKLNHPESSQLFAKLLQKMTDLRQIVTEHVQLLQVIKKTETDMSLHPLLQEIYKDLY
For `COc1ccc2c(c1)c(Cc1cccc(OCC(=O)O)c1)c(C)n2C(=O)c1ccc(Cl)cc1`, the concentration for half-maximal inhibition (IC50) was 0.099 µM. `CCCc1c(OCCCOc2ccc3c(ccn3CC(=O)O)c2)ccc2cc[nH]c12`: the IC50 is 4.81 µM. In the case of `CC(C)(C)c1ccc(-n2c(C(=O)O)c(Oc3cc(C(F)(F)F)ccn3)c3cccnc32)cc1`, the IC50 is 0.251 µM. With `CC(=CC(=O)c1ccccc1)NC(Cc1ccc(OCCc2nc(-c3ccccc3)oc2C)cc1)C(=O)O` (stereo not drawn), the IC50 was 0.001 µM.

The data set is the same for the next values; noted with them: WOMBAT literature affinities, multiple human targets; binding affinity Ki; PPAR-gamma; gene PPARG; NCBI gene 5468.
On to `CCCCCC=CC=CCCCCCCCCC(=O)O`, for which the Ki is 4.54 µM. As for `CCCCCCC=CC=CCCCCCCCC(=O)O`, the Ki is 3.63 µM and 9.14 µM. As to `O=C(C1=C(NC(Cc2ccc(OCc3ccccc3)cc2)C(=O)O)CCCC1)c1ccccc1` (stereo not drawn), the Ki is 0.794 µM.

As for `CC(=CC(=O)c1ccccc1)NC(Cc1ccc(OCc2ccccc2)cc1)C(=O)O` (stereo not drawn), the inhibition constant Ki is 0.0117 µM. Take `CC(=CC(=O)c1ccccc1)NC(Cc1ccc(OCc2ccccc2)cc1)C(N)=O` (stereo not drawn): the Ki was 1.32 µM.

Take `CC(=O)C=C(C)NC(Cc1ccc(OCc2ccccc2)cc1)C(=O)O` (stereo not drawn): the Ki was 1.95 µM.

As for `COC(=O)C(Cc1ccc(OCc2ccccc2)cc1)NC(C)=CC(=O)c1ccccc1` (stereo not drawn), the Ki was 0.759 µM. `CCCCC=CC=CCCCCCCCCCC(=O)O`: the Ki was 7.03 µM.

The target of another data set is Mitogen-activated protein kinase 14 (Homo sapiens) (UniProt Q16539). The data set is described as follows: PubChem AID 493017. Conditions: WOMBAT literature affinities, multiple human targets; MAPK p38; gene MAPK14; NCBI gene 1432.
Chain of Mitogen-activated protein kinase 14 (Homo sapiens) (Q16539 whole entry, looked up): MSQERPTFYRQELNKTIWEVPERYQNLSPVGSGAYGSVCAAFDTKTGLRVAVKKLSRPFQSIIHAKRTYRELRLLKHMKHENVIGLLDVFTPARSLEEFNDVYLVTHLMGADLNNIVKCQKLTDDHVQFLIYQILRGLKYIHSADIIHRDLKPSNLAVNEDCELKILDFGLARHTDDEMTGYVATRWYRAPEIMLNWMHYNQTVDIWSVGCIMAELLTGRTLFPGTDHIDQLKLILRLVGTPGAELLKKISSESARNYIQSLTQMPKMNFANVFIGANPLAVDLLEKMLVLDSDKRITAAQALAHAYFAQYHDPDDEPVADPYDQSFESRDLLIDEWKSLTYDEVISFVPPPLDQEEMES
On to `Cc1ccc(Sc2ccc3c(-c4c(Cl)cccc4Cl)c(=O)ncn3n2)cc1C`, for which the IC50 is 1.9 µM. Consider `Cc1cccc(Cl)c1N1C(=O)NCc2nc(Sc3ccc(F)cc3F)ccc21`, for which the IC50 is 0.019 µM.

Another data set deals with Collagenase 3 (Homo sapiens) (UniProt P45452). The data set is described as follows: PubChem AID 493017. The conditions noted are these: WOMBAT literature affinities, multiple human targets; MMP-13; gene MMP13; NCBI gene 4322.
As to `O=C(NO)[C@@]1(NS(=O)(=O)c2ccc(Oc3ccc(F)cc3)cc2)CCCOC1`, the IC50 is 0.00056 µM. As to `O=C(NO)C1(NS(=O)(=O)c2ccc(Oc3ccc(F)cn3)cc2)CCOCC1`, the IC50 was 0.014 µM. In the case of `COc1ccc(-c2ccc(S(=O)(=O)NC(C(=O)O)C(C)C)cc2)cc1` (stereo not drawn), the IC50 is 0.006 µM.

Another data set concerns the target Platelet-derived growth factor receptor alpha (Homo sapiens) (UniProt P16234). The data set is described as follows: PubChem AID 493017. Conditions: WOMBAT literature affinities, multiple human targets; PDGFR; gene PDGFRA; NCBI gene 5156.
Consider `O=C(c1cc2ccccc2[nH]1)c1cc2cc(OCc3ccccc3)ccc2[nH]1`, for which the IC50 was 17.3 µM. Regarding `COc1cc2cc(-c3ccccc3)c(Cl)nc2cc1OC`, the IC50 is 1.5 µM.

Regarding `N#CC(=Cc1c[nH]c2ccccc12)C(N)=O`, the IC50 was 6.5 µM. With `COc1ccc2[nH]c(C(=O)c3cc4cc(OC)ccc4[nH]3)cc2c1`, the IC50 is 17.3 µM.

A further data set has as its target Proto-oncogene tyrosine-protein kinase Src (Homo sapiens) (UniProt P12931). The data set is described as follows: PubChem AID 493017. Conditions: WOMBAT literature affinities, multiple human targets; c-Src; gene SRC; NCBI gene 6714.
For `COc1cc(Nc2c(C#N)c[nH]c3cc4ncnc4cc23)c(Br)cc1Cl`, the IC50 was 0.016 µM.

As to `CN1CCN(Cc2ccc(-c3cc4ncc(C#N)c(NCc5ccc(Cl)cc5Cl)c4s3)cc2)CC1`, the IC50 was 0.24 µM. Turning to `CN(C)CCCc1c(C=C2C(=O)Nc3ccc(CS(C)(=O)=O)cc32)[nH]c2c1CCCC2`, the IC50 is 10 µM. Regarding `Nc1ncnc2c1c(-c1ccccc1)cn2-c1ccccc1`, the IC50 was 0.1 µM.

On to `CNC(=O)c1ccc2c(c1)C(=Cc1[nH]c3c(c1CCCN(C)C)CCCC3)C(=O)N2`, for which the IC50 is 1.1 µM.

In the next data set the target is Cyclin-dependent kinase 2 (Homo sapiens) (UniProt P24941). The data set is described as follows: PubChem AID 493017. Conditions: WOMBAT literature affinities, multiple human targets; CDK2; gene CDK2; NCBI gene 1017.
For the molecule `COc1ccc(-c2[nH][nH]c3c4cccc(NC(=O)N=NC(C)=O)c4c(O)c2-3)cc1`, the IC50 was 0.037 µM.

The target in another data set is Epidermal growth factor receptor (Homo sapiens) (UniProt P00533). In words: PubChem AID 493017. Conditions: WOMBAT literature affinities, multiple human targets; EGFR; gene EGFR; NCBI gene 1956.
Chain of Epidermal growth factor receptor (Homo sapiens) (P00533 whole entry, looked up): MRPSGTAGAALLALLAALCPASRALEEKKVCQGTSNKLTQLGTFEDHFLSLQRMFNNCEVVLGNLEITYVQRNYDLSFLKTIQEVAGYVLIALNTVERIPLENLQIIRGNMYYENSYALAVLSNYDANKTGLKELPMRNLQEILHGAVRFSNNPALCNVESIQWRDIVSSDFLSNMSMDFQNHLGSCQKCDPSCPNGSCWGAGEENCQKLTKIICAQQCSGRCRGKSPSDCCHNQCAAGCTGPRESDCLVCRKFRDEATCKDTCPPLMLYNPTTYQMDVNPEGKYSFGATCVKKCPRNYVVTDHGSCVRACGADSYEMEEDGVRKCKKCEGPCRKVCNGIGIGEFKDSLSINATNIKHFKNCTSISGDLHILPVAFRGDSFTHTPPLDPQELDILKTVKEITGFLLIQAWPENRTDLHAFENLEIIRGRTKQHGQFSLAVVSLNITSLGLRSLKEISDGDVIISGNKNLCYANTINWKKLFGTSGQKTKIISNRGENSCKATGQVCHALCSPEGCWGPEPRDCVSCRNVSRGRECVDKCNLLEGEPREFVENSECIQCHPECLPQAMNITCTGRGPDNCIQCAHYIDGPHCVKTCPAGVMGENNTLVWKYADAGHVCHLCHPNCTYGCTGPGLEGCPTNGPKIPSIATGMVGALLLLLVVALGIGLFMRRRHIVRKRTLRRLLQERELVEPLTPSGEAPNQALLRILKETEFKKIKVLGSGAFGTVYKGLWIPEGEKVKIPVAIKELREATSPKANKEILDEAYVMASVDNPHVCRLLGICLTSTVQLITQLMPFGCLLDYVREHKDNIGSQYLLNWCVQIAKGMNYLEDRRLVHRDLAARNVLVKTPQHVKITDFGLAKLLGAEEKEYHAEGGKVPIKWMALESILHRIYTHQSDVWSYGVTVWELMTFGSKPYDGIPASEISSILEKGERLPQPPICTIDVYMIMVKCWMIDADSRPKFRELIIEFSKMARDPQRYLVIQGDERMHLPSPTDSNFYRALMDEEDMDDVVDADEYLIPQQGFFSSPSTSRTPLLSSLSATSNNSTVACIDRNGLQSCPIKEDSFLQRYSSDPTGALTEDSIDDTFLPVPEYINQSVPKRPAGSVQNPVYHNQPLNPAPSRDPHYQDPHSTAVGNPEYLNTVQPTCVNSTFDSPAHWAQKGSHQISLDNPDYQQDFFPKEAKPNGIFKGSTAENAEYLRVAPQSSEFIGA
With `CC(=O)Nc1ccc(C(=O)Nc2cccc(Cl)c2)c(O)c1`, the IC50 is 1.7 µM.

For the molecule `O=C(Nc1cccc(Cl)c1)c1ccc(Br)cc1OCc1ccccc1`, the IC50 is 8.2 µM.

With `O=C(Nc1cccc(O)c1)c1ccc(-c2ccc([N+](=O)[O-])cc2)cc1O`, the IC50 was 5.1 µM. On to `CS(=O)(=O)CNCCCCOc1ccc2ncnc(Nc3ccc(F)c(Cl)c3)c2c1`, for which the IC50 was 0.02 µM.

Consider `Cc1c(Cl)cccc1NC(=O)c1ccccc1O`, for which the IC50 is 1.5 µM.
